Assay results published in US7608626B2, “Substituted indolizines and derivatives as CNS agents” (Wyeth, priority 2004, dated 2009).
pEC50, pKi: −log10 of the molar value. Counter-ions that a name gives are not always drawn. Like-named read-outs stand apart in the source and are kept apart here.

Key:
[1] = biological target: T1, human 5-hydroxytryptamine-2C (h-5-HT2C) receptor (Homo sapiens, UniProt P28335); assay: [125I]DOI binding to membranes of CHO cells expressing h-5-HT2C receptor
T1 construct: expressed in transfected cells; host or cells: Chinese Hamster Ovary (CHO) cells; membrane preparation
T1 sequence (P28335 33-458): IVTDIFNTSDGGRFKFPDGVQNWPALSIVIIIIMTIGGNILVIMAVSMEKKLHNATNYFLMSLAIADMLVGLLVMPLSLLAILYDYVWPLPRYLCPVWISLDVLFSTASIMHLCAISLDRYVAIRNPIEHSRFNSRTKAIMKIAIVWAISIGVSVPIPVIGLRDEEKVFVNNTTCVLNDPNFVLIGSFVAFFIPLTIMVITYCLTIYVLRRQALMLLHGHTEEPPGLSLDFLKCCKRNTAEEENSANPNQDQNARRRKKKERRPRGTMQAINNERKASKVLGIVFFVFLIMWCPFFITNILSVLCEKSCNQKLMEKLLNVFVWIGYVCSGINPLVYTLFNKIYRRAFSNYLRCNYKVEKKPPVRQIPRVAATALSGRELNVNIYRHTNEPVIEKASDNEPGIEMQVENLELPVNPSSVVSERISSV

human 5-HT2C receptor = biological target: T2, human 5-HT2C receptor (Homo sapiens, UniProt P28335); assay: 5-HT2C receptor-stimulated calcium mobilization (FLIPR) in CHO cells; type: cell-based; settings: for Emax: CHO, read-out: 5-HT2C Function Emax (%); for pEC50: calcium mobilization, CHO cells, read-out: 5-HT2C Function EC50
T2 construct: expressed in transfected cells
T2 sequence (P28335 33-458): T1 sequence (P28335 33-458)

pKi ([1]; read-out: 5-HT2C Affinity Ki) | Compound | melting point | further results
6.57 | NCCc1c(-c2ccccc2)cn2ccccc12 [Example 1, 2-(2-phenylindolizin-1-yl)ethylamine] | – | –
– | CCc1c(CCN)c2ccccn2c1CC (as salt: fumaric acid salt) [Example 5, 2-(2,3-diethylindolizin-1-yl)ethylamine] | 166 to 171 °C | –
6.68 | CCCNCCc1c(CC)c(CCC)n2ccccc12 [Example 8] | – | –
– | CCNCCc1c(CC)c(CC)n2ccccc12 (as salt: fumaric acid salt) [Example 6, N-[2-(2,3-diethylindolizin-1-yl)ethyl]-N-ethylamine] | 154 to 158 °C | –
– | CCc1cn2ccccc2c1CCN [Example 4, 2-(2-ethylindolizin-1-yl)ethylamine] | – | pKi [1]: 6.92
– | CCCc1c(C)c(CC(C)N)c2ccccn12 (stereo not drawn) (as salt: fumaric acid salt) [Example 10, 1-(2-methyl-3-propylindolizin-1-yl)propan-2-amine] | 147 to 150 °C | –
– | CCCc1c(-c2ccccc2)c(CCN)c2ccccn12 (as salt: fumaric acid salt) [Example 3, 2-(2-phenyl-3-propylindolizin-1-yl)ethylamine] | 169 to 172 °C | –
– | CCCc1c(C)c(CC(C)N)c2ccccn12 (stereo not drawn) [Example 10, 1-(2-methyl-3-propylindolizin-1-yl)propan-2-amine] | – | pKi [1]: 7.77; Emax (human 5-HT2C receptor): 90%; pEC50 (human 5-HT2C receptor): 7.34
– | CCCc1c(CC)c(CC(C)N)c2ccccn12 (stereo not drawn) (as salt: fumaric acid salt) [Example 9, 2-(2-ethyl-3-propylindolizin-1-yl)-1-methylethylamine] | 184 to 186 °C | –
– | CSc1ccc2c(c1)C(N1CCN(C)CC1)Cc1ccccc1S2 (stereo not drawn) [Methiothepin, reference compound] | – | pKi ([1]; reference compounds, [125I]DOI radioligand, CHO cell membranes, read-out: Ki (95% confidence interval)): 8.34
– | CCc1cn2ccccc2c1CCN (as salt: fumaric acid salt) [Example 4, 2-(2-ethylindolizin-1-yl)ethylamine] | 170 to 175 °C (dec.) | –
6.93 | CCc1c(-c2ccccc2)c(CCN)c2ccccn12 [Example 2, 2-(3-ethyl-2-phenylindolizin-1-yl)ethylamine] | – | –
– | CCc1c(-c2ccccc2)c(CCN)c2ccccn12 (as salt: fumaric acid salt) [Example 2, 2-(3-ethyl-2-phenylindolizin-1-yl)ethylamine] | 173 to 176 °C | –
– | NCCc1c2c(n3ccccc13)CCCC2 [Example 12, 2-(1,2,3,4-tetrahydropyrido[1,2-a]indol-10-yl)ethylamine] | – | pKi [1]: 7.01
– | CCc1c(CCN)c2ccccn2c1CC [Example 5, 2-(2,3-diethylindolizin-1-yl)ethylamine] | – | pKi [1]: 7.46; Emax (human 5-HT2C receptor): 80%; pEC50 (human 5-HT2C receptor): 7.96
7.27 | CCCc1c(-c2ccccc2)c(CCN)c2ccccn12 [Example 3, 2-(2-phenyl-3-propylindolizin-1-yl)ethylamine] | – | –
– | CCCc1c(CC)c(CCN)c2ccccn12 [Example 7, 2-(2-ethyl-3-propylindolizin-1-yl)ethylamine] | – | pKi [1]: 7.68; Emax (human 5-HT2C receptor): 100%; pEC50 (human 5-HT2C receptor): 7.72
– | CCCc1c(CC)c(CCN)c2ccccn12 (as salt: fumaric acid salt) [Example 7, 2-(2-ethyl-3-propylindolizin-1-yl)ethylamine] | 154 to 158 °C | –

Compound | pKi ([1]; read-out: 5-HT2C Affinity Ki) | melting point | further results
CCNCCc1c(CC)c(CC)n2ccccc12 [Example 6, N-[2-(2,3-diethylindolizin-1-yl)ethyl]-N-ethylamine] | 6.64 | – | –
CCCc1c(CC)c(CC(C)N)c2ccccn12 (stereo not drawn) [Example 9, 2-(2-ethyl-3-propylindolizin-1-yl)-1-methylethylamine] | 6.91 | – | –
CCCc1c(C)c(CC(N)CC)c2ccccn12 (stereo not drawn) [Example 11, 1-(2-methyl-3-propylindolizin-1-yl)butan-2-amine] | 6.34 | – | –
